Data reported in US20260137707A1, “METHODS OF MODULATING ATXN2 EXPRESSION” (University of Utah Research Foundation, priority 2022, published 2026).
Read-outs that look alike come from different tables or passages of the source.

Experiments:
[1] = in vitro; details: human
Method: (§1) Compounds were plated at 2× concentrations in 25 μl in 384 well plates with each compound dose plated in triplicate. An equal volume of S2, H2, or SC cells (24,000 cells/well) suspended in phenol-red free Dulbecco's Modified Eagle Medium (DMEM) with 10% fetal bovine serum and 1× penicillin/streptomycin were added. Cells were grown 24 hrs then assayed first by using the CellTiter-Fluor reagent (20 μl) followed by the addition of Bright-Glo ([…]) luciferase assay, using a multimode plate reader (Beckman DT880). Values were reported as the mean±standard deviation (SD) with n=3. IC50s were determined by the Hill coefficient method using an online tool (https://www.aatbio.com/tools/ic50-calculator).
(§2) These 46 compounds were retested at 12 doses and a zero-compound dose, in multiplexed assays in 96-well plates using CellTiter-Fluor to determine cell viability, then Bright-Glo to determine luciferase expression. The values for H2 and S2 were used as replicates to calculate IC50s and to assess cell viability.
(§3) For CMV-luc and viability charts, the fitted lines are second-order polynomials. Means and SD are shown.

[2] = test system: ATXN2-luc; experiment: Secondary assays, Bright-Glo luciferase in H2 and S2 cells; format: cell-based; details: read-out: Mean IC50
Method: as §1, §2, §3

[3] = test system: ATXN2-luc; experiment: cells; details: for activity at 10 µM: read-out: Luc at 10 μm
[4] = test system: ATXN2-luc
[5] = test system: ATXN2-luc; details: average ATXN2-luc response of H2 and S1 cells
[6] = Table 1, H2 cells, 24 hrs, single 10 μM dose, Z-score of luciferase
[7] = Table 5S, pilot screen, H2 cells, 10 μM

## O=C(NC1CCNCC1)c1n[nH]cc1NC(=O)c1c(Cl)cccc1Cl [AT7519]
[1]
  viability at 24 h: 50.3%

## CN(C)CCN1C(=O)c2cccc3cc(N)cc(c23)C1=O [Amonafide]
[1]
  viability at 24 h: 68.2%

## CC[C@@]1(O)C(=O)OCc2c1cc1n(c2=O)Cc2cc3ccccc3nc2-1 [Camptothecin]
[1]; H2, S2 and SC cells
  viability at 24 h: 92.1%
[2]; ATXN2-luc, Bright-Glo, H2 and S2 values used as replicates, 12 doses, 96-well plates
  IC50: 40 nM

## C[C@H]1O[C@@H](O[C@H]2[C@@H](O)C[C@H](O[C@H]3[C@@H](O)C[C@H](O[C@H]4CC[C@@]5(C)[C@H](CC[C@@H]6[C@@H]5C[C@@H](O)[C@]5(C)[C@@H](C7=CC(=O)OC7)CC[C@]65O)C4)O[C@@H]3C)O[C@@H]2C)C[C@H](O)[C@@H]1O [Digoxin]
[1]
  viability at 24 h: 67.9%
[3]; read-out: Luc at 1 μm
  activity at 1 µM: 47%
[3]
  activity at 10 µM: 12%
[4]
  SD from Mean: −3.904 SD

## O=c1[nH]c(=O)n([C@H]2C[C@H](O)[C@@H](CO)O2)cc1F [Floxuridine]
[1]
  viability at 24 h: 97.9%

## O=C1NC(=O)/C(=C/c2ccc3nccc(-c4ccncc4)c3c2)S1 [GSK-615]
[1]
  viability at 24 h: 75.5%

## COc1cc2ncn(-c3cc(OCc4ccccc4C(F)(F)F)c(C(N)=O)s3)c2cc1OC [GW843682X]
[1]
  viability at 24 h: 75.5%

## CC(=O)O[C@H]1C[C@H](O[C@H]2[C@@H](O)C[C@H](O[C@H]3[C@@H](O)C[C@H](O[C@H]4CC[C@@]5(C)[C@H](CC[C@@H]6[C@@H]5C[C@@H](O)[C@]5(C)[C@@H](C7=CC(=O)OC7)CC[C@]65O)C4)O[C@@H]3C)O[C@@H]2C)O[C@H](C)[C@H]1O[C@@H]1O[C@H](CO)[C@@H](O)[C@H](O)[C@H]1O [LANATOSIDE C]
[5]
  Luc at 1 μm: 39
  Luc at 10 μm: 15
[4]; [6]
  SD from Mean: −4.323 SD
[4]; Table 1, H2 cells, 24 hrs, single 10 μM dose, Z-score of luciferase, listed as Lanatoside C
  SD from Mean: −3.629 SD
[4]; [7]
  SD from Mean: −4.323 SD
[4]; Table 5S, pilot screen, H2 cells, 10 μM, listed as Lanatoside C
  SD from Mean: −3.629 SD

## COc1ccc(CN2CCN(C(c3ccc(F)cc3)c3ccc(F)cc3)CC2)c(OC)c1OC [LOMERIZINE DiHCl]
[5]
  Luc at 1 μm: 102
[3]
  activity at 10 µM: 55%
[4]; [6]
  SD from Mean: −2.782 SD
[4]; [7]
  SD from Mean: −2.782 SD

## C=CCn1c(=O)c2cnc(Nc3ccc(N4CCN(C)CC4)cc3)nc2n1-c1cccc(C(C)(C)O)n1 [MK-1775]
[1]
  viability at 24 h: 77.9%

## CNC(=O)c1nn(C)c2c1C(C)(C)Cc1cnc(Nc3ccc(N4CCN(C)CC4)cc3)nc1-2 [Milciclib]
[1]
  viability at 24 h: 74.4%

## COC(=O)C1=C(C)NC(C)=C(C(=O)OCCN(C)Cc2ccccc2)C1c1cccc([N+](=O)[O-])c1 (stereo not drawn) [NICARDIPINE]
[5]
  Luc at 1 μm: 112
[3]
  activity at 10 µM: 61%
[4]; [6]
  SD from Mean: −2.782 SD
[4]; [7]
  SD from Mean: −2.782 SD

## CC(C)c1cc(C(=O)N2Cc3ccc(CN4CCN(C)CC4)cc3C2)c(O)cc1O [Onalespib (AT-13387AU)]
[1]
  viability at 24 h: 90.6%

## CC(C)c1cc(/C=C(\C#N)C(=O)NCCCc2ccccc2)cc(C(C)C)c1O [SU1498]
[5]
  Luc at 1 μm: 22
  Luc at 10 μm: 15
[4]; [6]
  SD from Mean: −4.885 SD
[4]; [7]
  SD from Mean: −4.885 SD

## C[n+]1cc2c3c(ccc2c2ccc4cc5c(cc4c21)OCO5)OCO3 [Sanguinarine]
[5]
  Luc at 1 μm: 127
[3]
  activity at 10 µM: 160%
[4]; [6]
  SD from Mean: −2.689 SD
[4]; [7]
  SD from Mean: −2.689 SD

## CCN(CC)CCCCCCCCOC(=O)c1cc(OC)c(OC)c(OC)c1 [TMB-8]
[5]
  Luc at 1 μm: 66
  Luc at 10 μm: 53
[4]; [6]
  SD from Mean: −5.740 SD
[4]; [7]
  SD from Mean: −5.740 SD

## C1CCC(N=C(NC23CC4CC(CC(C4)C2)C3)N2CCOCC2)CC1.Cl [U-37883A]
[5]
  Luc at 1 μm: 94
  Luc at 10 μm: 17
[4]; [6]
  SD from Mean: −4.965 SD
[4]; [7]
  SD from Mean: −4.965 SD

## C=CCNC1=C2C[C@@H](C)C[C@H](OC)[C@H](O)[C@@H](C)/C=C(\C)[C@H](OC(N)=O)[C@@H](OC)/C=C\C=C(/C)C(=O)NC(=CC1=O)C2=O [tanespimycin]
[1]
  viability at 24 h: 83.6%
[2]
  IC50: 442 nM

## Cyanocobalamin
[5]
  Luc at 1 μm: 110
  Luc at 10 μm: 140
[4]; [6]
  SD from Mean: −2.681 SD
[4]; [7]
  SD from Mean: −2.681 SD

## STROPH[…] LACTONE ACETATE
[5]
  Luc at 1 μm: 37
  Luc at 10 μm: 20
[4]; [6]
  SD from Mean: −3.855 SD
[4]; [7]
  SD from Mean: −3.855 SD
